Experimental data from ChEMBL document CHEMBL3046838, “In vitro and in silico exploration of IL-2 inhibition by small drug-like molecules” (Med Chem Res, 2013).
Converted amounts (≈) assume the structure as drawn.

How the values were obtained:
Blood = assay: Inhibition of ROS production in human whole blood after 30 mins by luminol-based chemiluminescence assay; format: functional, tissue-based; settings: 0.5 h
PBMC [1] = assay: Immunosuppressive activity in human PBMC assessed as inhibition of PHA/PMA-induced IL-2 production after 18 hrs by ELISA; format: functional, cell-based
PBMC [2] = assay: Immunosuppressive activity in human PBMC assessed as inhibition of PHA-induced T cell proliferation after 72 hrs by [3H]thymidine incorporation assay; format: functional, cell-based
CC-1 = assay: Cytotoxicity against rat CC1 after 48 hrs by MTT assay; format: cell-based; settings: CC-1, 48 h
3T3-L1 = assay: Cytotoxicity against mouse 3T3L1 after 48 hrs by MTT assay; format: cell-based; settings: 3T3-L1, 48 h
[3] = biological target: T1, Interleukin-2 receptor subunit alpha (Homo sapiens, UniProt P01589); assay: Competitive inhibition of IL2 receptor alpha (unknown origin)
T1 sequence (P01589 whole entry): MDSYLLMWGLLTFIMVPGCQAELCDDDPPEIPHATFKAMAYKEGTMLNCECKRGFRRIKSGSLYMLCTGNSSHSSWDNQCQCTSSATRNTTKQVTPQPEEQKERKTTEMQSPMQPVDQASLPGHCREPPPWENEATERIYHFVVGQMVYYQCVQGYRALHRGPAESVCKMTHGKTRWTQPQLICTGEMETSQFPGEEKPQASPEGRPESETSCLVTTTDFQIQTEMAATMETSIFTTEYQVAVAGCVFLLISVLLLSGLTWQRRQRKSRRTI

| Compound | IC50 (Blood) [µg/mL] | IC50 [3] [µM] | IC50 (PBMC [1]) [µg/mL] | IC50 (PBMC [2]) [µg/mL] | IC50 (CC-1) [µg/mL] | IC50 (3T3-L1) [µg/mL] |
| --- | --- | --- | --- | --- | --- | --- |
| CC1CC(=O)Nc2cc(N)ccc2N1 (configuration not stated) | 4.5 (≈ 23.5 µM) |  | 13 (≈ 68 µM) | 4.4 (≈ 23 µM) |  |  |
| CC1(C)CC(=O)Nc2cc([N+](=O)[O-])ccc2N1 | 12.4 (≈ 52.7 µM) |  |  |  |  |  |
| CC1C/C(=N\NC(=O)Nc2ccccc2)Nc2cc([N+](=O)[O-])ccc2N1 (configuration not stated) |  |  |  | 25.5 (≈ 72 µM) |  |  |
| O=C(/C=C/c1ccccc1)c1cccc(O)c1 | 4.8 (≈ 21.4 µM) |  | 14.2 (≈ 63.3 µM) | 8.2 (≈ 36.6 µM) |  |  |
| COC(=O)[C@H](Cc1ccc(C#Cc2ccccc2)cc1)NC(=O)C[C@H]1CCCN(C(=N)N)C1 |  | 6 |  |  |  |  |
| O=C(/C=C/c1ccccc1)c1ccccc1O [2'-HYDROXYCHALCONE] |  |  | 19.7 (≈ 87.8 µM) | 11 (≈ 49.1 µM) |  |  |

Further lines, with some results ahead:

| IC50 (Blood) [µg/mL] | IC50 [3] [µM] | Compound | IC50 (PBMC [1]) [µg/mL] | IC50 (PBMC [2]) [µg/mL] | IC50 (CC-1) [µg/mL] | IC50 (3T3-L1) [µg/mL] |
| --- | --- | --- | --- | --- | --- | --- |
| 24.4 (≈ 94.7 µM) |  | Nc1ccc(C(=O)/C=C/c2cccc(Cl)c2)cc1 | 2.5 (≈ 9.7 µM) | < 0.5 | 16.7 (≈ 64.8 µM) | 9.5 (≈ 36.9 µM) |
| 12.4 (≈ 52.3 µM) |  | Cc1ccc(/C=C/C(=O)c2ccc(N)cc2)cc1 | 15.1 (≈ 63.6 µM) | 3.2 (≈ 13.5 µM) |  |  |
| 31 (≈ 139 µM) |  | Cc1ccc(/C=C/C(=O)c2ccccc2)cc1 | 15.6 (≈ 70.2 µM) | 7.8 (≈ 35.1 µM) |  |  |
